Experiments:
[1] = target: T1, Epidermal growth factor receptor (Homo sapiens, UniProt P00533, C797S/L858R/T790M)
[2] = target: Epidermal growth factor receptor (Homo sapiens, UniProt P00533, L858R/T790M); experiment: Inhibition of EGFR L858R/T790M double mutant (unknown origin) using polyE4Y1 as substrate incubated for 5 mins with compound followed by substrate addition measured after 60 mins in presence of ATP by ADP-Glo reagent based assay
[3] = target: Epidermal growth factor receptor (Homo sapiens, UniProt P00533)
Description: Inhibition of wild-type EGFR (unknown origin) using polyE4Y1 as substrate incubated for 5 mins with compound followed by substrate addition measured after 60 mins in presence of ATP by ADP-Glo reagent based assay

PC-9 [4] = assay type: functional, cell-based; settings: Homo sapiens, PC-9, 72 h
[5] = target: Epidermal growth factor receptor (Homo sapiens, UniProt P00533, C797S/EX19DEL/T790M)
NCI-H1975 = experiment: Antiproliferative activity against human NCI-H1975 cells assessed as inhibition of cell growth measured after 72 hrs by CCK8 assay; assay type: functional, cell-based; settings: NCI-H1975, 72 h
[6] = target: T1, Epidermal growth factor receptor; remark: listed apart in the source
[7] = target: Epidermal growth factor receptor (Homo sapiens, UniProt P00533, L858R)
PC-9 [8] = experiment: Antiproliferative activity against human PC-9 cells assessed as inhibition of cell growth measured after 72 hrs by CCK8 assay; assay type: functional, cell-based; settings: PC-9, 72 h
A-431 = experiment: Antiproliferative activity against human A-431 cells assessed as inhibition of cell growth measured after 72 hrs by CCK8 assay; assay type: functional, cell-based; settings: A-431, 72 h
[9] = Induction of apoptosis in human H1975-TM cells assessed as apoptotic cells at 500 nM measured after 24 by Annexin V-FITC and propidium iodide staining based flow cytometric analysis (reference value: 7.08 %); assay type: functional; settings: time 24 hrs
[10] = Induction of cell cycle arrest in human H1975-TM cells assessed as accumulation at G0/G1 phase at 500 nM measured after 24 hrs by RNase A/propidium iodide staining based flow cytometric analysis (reference value: 64.3 %); assay type: functional
[11] = Induction of cell cycle arrest in human H1975-TM cells assessed as accumulation at S phase at 500 nM measured after 24 hrs by RNase A/propidium iodide staining based flow cytometric analysis (reference value: 18.1 %); assay type: functional
[12] = Antitumor activity against human H1975-TM cells xenografted in BALB/c mouse assessed as tumor growth inhibition at 25 mg/kg, po measured after 25 days; assay type: functional; settings: time 25 day
[13] = Induction of cell cycle arrest in human H1975-TM cells assessed as accumulation at G2/M phase at 500 nM measured after 24 hrs by RNase A/propidium iodide staining based flow cytometric analysis (reference value: 17.6 %); assay type: functional

T1 sequence (P00533 25-1210 T790M/C797S/L858R limits assumed): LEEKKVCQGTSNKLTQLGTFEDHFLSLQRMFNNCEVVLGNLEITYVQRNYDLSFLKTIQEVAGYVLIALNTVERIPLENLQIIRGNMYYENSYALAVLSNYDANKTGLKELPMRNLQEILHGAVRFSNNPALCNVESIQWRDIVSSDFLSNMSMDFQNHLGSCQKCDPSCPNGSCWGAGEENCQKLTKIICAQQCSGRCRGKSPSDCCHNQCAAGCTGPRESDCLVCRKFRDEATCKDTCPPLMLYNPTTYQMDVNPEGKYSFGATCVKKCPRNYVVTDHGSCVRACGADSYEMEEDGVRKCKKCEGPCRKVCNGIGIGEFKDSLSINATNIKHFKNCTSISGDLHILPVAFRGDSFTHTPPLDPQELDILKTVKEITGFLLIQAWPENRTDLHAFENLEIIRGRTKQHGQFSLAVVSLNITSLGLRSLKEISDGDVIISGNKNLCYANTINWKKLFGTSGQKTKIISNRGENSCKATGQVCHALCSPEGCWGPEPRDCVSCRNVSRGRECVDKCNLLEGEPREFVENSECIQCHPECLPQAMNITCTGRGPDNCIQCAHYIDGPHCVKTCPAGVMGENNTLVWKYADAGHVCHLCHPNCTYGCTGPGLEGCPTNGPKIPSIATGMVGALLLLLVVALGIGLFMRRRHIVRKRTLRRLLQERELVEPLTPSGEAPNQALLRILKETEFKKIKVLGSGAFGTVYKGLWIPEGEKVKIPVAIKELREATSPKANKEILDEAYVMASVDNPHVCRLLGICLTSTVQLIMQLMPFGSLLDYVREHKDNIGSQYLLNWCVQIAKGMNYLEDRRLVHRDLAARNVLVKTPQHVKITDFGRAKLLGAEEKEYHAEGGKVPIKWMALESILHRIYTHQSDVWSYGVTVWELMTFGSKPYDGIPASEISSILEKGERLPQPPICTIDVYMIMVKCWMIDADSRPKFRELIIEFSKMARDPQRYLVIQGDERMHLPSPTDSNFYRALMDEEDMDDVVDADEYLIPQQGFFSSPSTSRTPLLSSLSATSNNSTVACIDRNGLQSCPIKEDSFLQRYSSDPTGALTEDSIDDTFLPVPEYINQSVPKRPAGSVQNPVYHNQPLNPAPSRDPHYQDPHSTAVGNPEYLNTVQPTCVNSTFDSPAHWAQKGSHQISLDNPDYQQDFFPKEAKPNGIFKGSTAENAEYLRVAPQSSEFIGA
Epidermal growth factor receptor (Homo sapiens, UniProt P00533, L858R), sequence (P00533 25-1210 L858R limits assumed): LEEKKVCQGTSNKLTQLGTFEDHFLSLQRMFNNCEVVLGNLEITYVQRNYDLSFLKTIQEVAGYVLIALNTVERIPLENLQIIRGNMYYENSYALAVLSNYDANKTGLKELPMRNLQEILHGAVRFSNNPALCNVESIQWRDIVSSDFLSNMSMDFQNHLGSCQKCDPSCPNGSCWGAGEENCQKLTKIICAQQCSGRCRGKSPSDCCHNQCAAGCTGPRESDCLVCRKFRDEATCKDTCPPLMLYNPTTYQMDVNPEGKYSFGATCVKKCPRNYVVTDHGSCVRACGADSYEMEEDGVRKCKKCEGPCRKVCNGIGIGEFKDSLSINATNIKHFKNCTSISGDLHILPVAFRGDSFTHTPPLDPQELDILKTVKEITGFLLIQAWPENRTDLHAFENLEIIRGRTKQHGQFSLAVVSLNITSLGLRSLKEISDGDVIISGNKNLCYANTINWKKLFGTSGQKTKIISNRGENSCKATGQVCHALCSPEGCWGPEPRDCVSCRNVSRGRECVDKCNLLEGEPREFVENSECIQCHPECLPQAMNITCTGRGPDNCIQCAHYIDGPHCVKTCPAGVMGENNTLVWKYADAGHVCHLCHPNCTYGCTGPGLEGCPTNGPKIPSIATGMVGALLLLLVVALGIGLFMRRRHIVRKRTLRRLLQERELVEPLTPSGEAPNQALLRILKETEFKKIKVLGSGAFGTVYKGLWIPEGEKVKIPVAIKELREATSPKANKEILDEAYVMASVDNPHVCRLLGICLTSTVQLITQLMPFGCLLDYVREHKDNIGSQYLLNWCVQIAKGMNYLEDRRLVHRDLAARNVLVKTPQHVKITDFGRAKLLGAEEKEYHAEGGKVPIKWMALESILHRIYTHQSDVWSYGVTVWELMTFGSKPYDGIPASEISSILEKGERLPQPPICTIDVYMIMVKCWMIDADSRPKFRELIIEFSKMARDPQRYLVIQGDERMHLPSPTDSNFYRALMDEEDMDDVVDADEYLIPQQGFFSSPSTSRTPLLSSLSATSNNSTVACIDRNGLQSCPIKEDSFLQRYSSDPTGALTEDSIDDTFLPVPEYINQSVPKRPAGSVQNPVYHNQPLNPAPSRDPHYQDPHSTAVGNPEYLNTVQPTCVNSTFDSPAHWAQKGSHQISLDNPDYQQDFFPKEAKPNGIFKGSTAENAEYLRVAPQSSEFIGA
Epidermal growth factor receptor (Homo sapiens, UniProt P00533), sequence (P00533 whole entry): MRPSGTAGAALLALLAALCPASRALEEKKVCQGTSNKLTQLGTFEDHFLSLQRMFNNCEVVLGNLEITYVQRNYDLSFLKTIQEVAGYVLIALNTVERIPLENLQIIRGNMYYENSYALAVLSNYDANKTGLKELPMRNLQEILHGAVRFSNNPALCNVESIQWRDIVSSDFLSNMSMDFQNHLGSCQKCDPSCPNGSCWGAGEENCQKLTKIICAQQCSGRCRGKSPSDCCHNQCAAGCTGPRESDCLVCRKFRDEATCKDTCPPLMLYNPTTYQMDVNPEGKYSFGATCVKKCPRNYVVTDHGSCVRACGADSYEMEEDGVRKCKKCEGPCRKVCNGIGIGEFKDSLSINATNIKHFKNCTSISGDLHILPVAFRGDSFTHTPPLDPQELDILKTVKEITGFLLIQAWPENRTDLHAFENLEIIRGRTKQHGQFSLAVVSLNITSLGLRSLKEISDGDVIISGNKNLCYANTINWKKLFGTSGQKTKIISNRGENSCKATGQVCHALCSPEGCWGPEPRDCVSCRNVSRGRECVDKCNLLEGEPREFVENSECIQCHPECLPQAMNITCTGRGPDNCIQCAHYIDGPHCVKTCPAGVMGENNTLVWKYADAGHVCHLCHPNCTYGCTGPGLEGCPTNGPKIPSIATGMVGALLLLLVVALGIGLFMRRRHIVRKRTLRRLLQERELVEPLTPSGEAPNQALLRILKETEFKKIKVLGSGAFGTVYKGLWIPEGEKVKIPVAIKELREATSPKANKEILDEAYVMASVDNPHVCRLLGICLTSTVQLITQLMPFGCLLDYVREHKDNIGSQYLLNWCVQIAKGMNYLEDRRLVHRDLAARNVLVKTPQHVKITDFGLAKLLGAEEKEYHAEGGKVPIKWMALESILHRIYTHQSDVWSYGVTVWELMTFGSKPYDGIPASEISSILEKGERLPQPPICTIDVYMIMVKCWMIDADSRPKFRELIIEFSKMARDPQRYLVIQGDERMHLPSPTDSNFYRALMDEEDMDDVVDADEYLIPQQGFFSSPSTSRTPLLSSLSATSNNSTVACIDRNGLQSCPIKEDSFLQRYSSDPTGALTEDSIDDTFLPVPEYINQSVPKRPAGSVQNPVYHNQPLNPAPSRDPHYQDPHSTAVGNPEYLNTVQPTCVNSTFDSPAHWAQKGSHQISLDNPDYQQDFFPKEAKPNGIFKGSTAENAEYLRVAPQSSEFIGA
Epidermal growth factor receptor (Homo sapiens, UniProt P00533, C797S/EX19DEL/T790M), sequence (P00533 whole entry, looked up, stated change not applied): as the sequence (P00533 whole entry) above

Row | IC50 [1] [nM] | Compound | further results
1 | 71 | CCS(=O)(=O)N1CCC(c2nc(-c3ccc(F)cc3)c(-c3ccnc(Nc4ccc(N5CCN(C)CC5)cc4OC)n3)s2)CC1 | –
2 | 20 | CN(C)CCn1ccc2cc(Nc3nccc(-c4sc(NS(=O)(=O)C5CCCCC5)nc4-c4ccc(F)cc4)n3)ccc21 | –
3 | 26 | CN(C)CCn1ccc2cc(Nc3nccc(-c4sc(N5CCOCC5)nc4-c4ccc(F)cc4)n3)ccc21 | –
4 | 58 | CCS(=O)(=O)N1CCC(c2nc(-c3ccc(F)cc3)c(-c3ccnc(Nc4ccc(N5CCOCC5)cc4)n3)s2)CC1 | –
5 | 90 | CN(C)CCn1ccc2cc(Nc3nccc(-n4ccnc4-c4cccc(F)c4)n3)ccc21 | –
6 | 2.2 | CCN1CCN(c2ccc(Nc3nccc(-c4sc(NS(=O)(=O)CC)nc4-c4ccc(F)cc4)n3)cc2)CC1 | –
7 | 26 | CCN1CCN(c2ccc(Nc3nccc(-c4sc(C5CCN(S(=O)(=O)CC)CC5)nc4-c4ccc(F)cc4)n3)cc2)CC1 | –
8 | 71 | CCS(=O)(=O)N1CCC(c2nc(-c3ccc(F)cc3)c(-c3ccnc(Nc4ccc(N5CCOCC5)cc4OC)n3)s2)CC1 | –
9 | 63 | CN1CCN(c2ccc(Nc3nccc(-n4ccnc4-c4ccc(F)cc4)n3)cc2)CC1 | –
10 | 6.3 | CCS(=O)(=O)Nc1nc(-c2ccc(F)cc2)c(-c2ccnc(Nc3ccc4c(ccn4CCN4CCOCC4)c3)n2)s1 | –
11 | 86 | CN(C)CCn1ccc2cc(Nc3nccc(-n4ccnc4-c4ccc(Cl)cc4)n3)ccc21 | –
12 | 20 | CC(C)c1nc(-c2ccc(F)cc2)c(-c2ccnc(Nc3ccc4c(ccn4CCN(C)C)c3)n2)s1 | –
13 | 71 | CCS(=O)(=O)N1CCC(c2nc(-c3ccc(F)cc3)c(-c3ccnc(Nc4ccc5c(ccn5CCN5CCOCC5)c4)n3)s2)CC1 | –
14 | 36 | CCS(=O)(=O)N1CCC(c2nc(-c3ccc(F)cc3)c(-c3ccnc(Nc4ccc(N5CCN(C)CC5)c(C)c4)n3)s2)CC1 | IC50 [2]: 17 nM; IC50 [3]: 67 nM; IC50 (PC-9 [4]): 40 nM; IC50 [5]: 70 nM; IC50 (NCI-H1975): 100 nM; IC50 [6]: 289 nM; IC50 [7]: 5.8 nM; IC50 (PC-9 [8]): 35 nM; IC50 (A-431): 610 nM
15 | 4.1 | CCS(=O)(=O)Nc1nc(-c2ccc(F)cc2)c(-c2ccnc(Nc3ccc(N4CCOCC4)c(F)c3)n2)s1 | –
16 | 37 | CCS(=O)(=O)Nc1nc(-c2ccc(F)cc2)c(-c2ccnc(Nc3ccc(N4CCOCC4)cc3)n2)s1 | –
17 | 70.1 | CCS(=O)(=O)Nc1nc(-c2ccc(F)cc2)c(-c2ccnc(Nc3cc(-c4cnn(C)c4)c(N4CCOCC4)cc3OC)n2)s1 | –
18 | – | COc1cc(N2CCC(N3CCN(C)CC3)CC2)ccc1Nc1ncc(Cl)c(Nc2ccccc2P(C)(C)=O)n1 [BRIGATINIB] | Activity [9]: 11.58%; Activity [10]: 78.4%; IC50 (PC-9 [4]): 390 nM; IC50 (NCI-H1975): 320 nM; IC50 (PC-9 [8]): 87 nM; IC50 (A-431): 510 nM; Activity [11]: 10.5%; TGI [12]: 59.8%; Activity [13]: 11.1%
19 | 2.1 | CN(C)CCn1ccc2cc(Nc3nccc(-c4sc(N)nc4-c4ccc(F)cc4)n3)ccc21 | –
20 | 28 | COc1cc(N2CCC(N3CCN(C)CC3)CC2)c(C)cc1Nc1nccc(-n2ccnc2-c2ccc(F)cc2)n1 | –
21 | 2.5 | CN(C)CCn1ccc2cc(Nc3nccc(-c4sc(NS(C)(=O)=O)nc4-c4ccc(F)cc4)n3)ccc21 | –
22 | 3.2 | CC(=O)Nc1nc(-c2ccc(F)cc2)c(-c2ccnc(Nc3ccc4c(ccn4CCN(C)C)c3)n2)s1 | IC50 [2]: 4.9 nM; IC50 [3]: 66 nM; IC50 (PC-9 [4]): 8 nM; IC50 [5]: 14 nM; IC50 (NCI-H1975): 340 nM; IC50 [6]: 159 nM; IC50 [7]: 2.1 nM; IC50 (PC-9 [8]): 20 nM; IC50 (A-431): 450 nM

Row | IC50 [1] [nM] | Compound | further results
23 | 34 | CCN(CC)CCn1ccc2cc(Nc3nccc(-c4sc(C5CCN(S(=O)(=O)CC)CC5)nc4-c4ccc(F)cc4)n3)ccc21 | –
24 | 11 | Cc1nc(-c2ccc(F)cc2)c(-c2ccnc(Nc3ccc4c(ccn4CCN(C)C)c3)n2)s1 | –
25 | 3.6 | CCS(=O)(=O)Nc1nc(-c2ccc(F)cc2)c(-c2ccnc(Nc3ccc(N4CCN(C)CC4)c(C)c3)n2)s1 | –
26 | 19 | CNc1nc(-c2ccc(F)cc2)c(-c2ccnc(Nc3ccc4c(ccn4CCN(C)C)c3)n2)s1 | –
27 | 0.9 | CCS(=O)(=O)Nc1nc(-c2ccc(F)cc2)c(-c2ccnc(Nc3ccc4c(ccn4CCN(C)C)c3)n2)s1 | –
28 | 17 | CN(C)CCn1ccc2cc(Nc3nccc(-n4ccnc4-c4ccc(F)cc4)n3)ccc21 | –
29 | 409 | CN(C)CCn1ccc2cc(Nc3nccc(-n4ccc(-c5ccc(F)cc5)n4)n3)ccc21 | –
30 | – | C=CC(=O)Nc1cc(Nc2nccc(-c3cn(C)c4ccccc34)n2)c(OC)cc1N(C)CCN(C)C [OSIMERTINIB] | IC50 (PC-9 [4]): 2200 nM; IC50 (NCI-H1975): […]; IC50 (PC-9 [8]): 5 nM; IC50 (A-431): […]
31 | 2.1 | CCS(=O)(=O)Nc1nc(-c2ccc(F)cc2)c(-c2ccnc(Nc3ccc(C4CCN(C)CC4)cc3)n2)s1 | –
32 | 3.4 | CC(C)S(=O)(=O)Nc1nc(-c2ccc(F)cc2)c(-c2ccnc(Nc3ccc4c(ccn4CCN(C)C)c3)n2)s1 | –
33 | 15 | CN(C)CCn1ccc2cc(Nc3nccc(-c4sc(NS(=O)(=O)c5ccc(F)cc5)nc4-c4ccc(F)cc4)n3)ccc21 | –
34 | 289 | COc1ccc(-c2nccn2-c2ccnc(Nc3ccc4c(ccn4CCN(C)C)c3)n2)cc1 | –
35 | > 1000 | CN(C)CCn1ccc2cc(Nc3nccc(-n4ccnc4-c4ccc(C(F)(F)F)cc4)n3)ccc21 | –
36 | 77 | CCS(=O)(=O)N1CCC(c2nc(-c3ccc(F)cc3)c(-c3ccnc(Nc4ccc(N5CCOCC5)c(F)c4)n3)s2)CC1 | –
37 | 15 | CCS(=O)(=O)N1CCC(c2nc(-c3ccc(F)cc3)c(-c3ccnc(Nc4ccc(C5CCN(C)CC5)cc4)n3)s2)CC1 | –
38 | 18 | CCS(=O)(=O)N1CCC(c2nc(-c3ccc(F)cc3)c(-c3ccnc(Nc4ccc(N5CCN(C)CC5)cc4)n3)s2)CC1 | IC50 [2]: 8 nM; IC50 [3]: 52 nM; IC50 (PC-9 [4]): 80 nM; IC50 [5]: 30 nM; IC50 (NCI-H1975): 190 nM; IC50 [6]: 166 nM; IC50 [7]: 2.4 nM; IC50 (PC-9 [8]): 6 nM; IC50 (A-431): 1200 nM
39 | 2.5 | CCS(=O)(=O)Nc1nc(-c2ccc(F)cc2)c(-c2ccnc(Nc3ccc(N4CCN(C)CC4)cc3OC)n2)s1 | –
40 | 1.8 | CCS(=O)(=O)Nc1nc(-c2ccc(F)cc2)c(-c2ccnc(Nc3ccc(N4CCN(C)CC4)cc3)n2)s1 | –
41 | 4.3 | CCCCS(=O)(=O)Nc1nc(-c2ccc(F)cc2)c(-c2ccnc(Nc3ccc4c(ccn4CCN(C)C)c3)n2)s1 | –
42 | 3.7 | CCS(=O)(=O)Nc1nc(-c2ccc(F)cc2)c(-c2ccnc(Nc3ccc(N4CCN(C(C)C)CC4)cc3)n2)s1 | –
43 | 49 | CCS(=O)(=O)N1CCC(c2nc(-c3ccc(F)cc3)c(-c3ccnc(Nc4ccc(N5CCN(C(C)C)CC5)cc4)n3)s2)CC1 | –
44 | 127 | COc1cc(N2CCN(C)CC2)ccc1Nc1nccc(-n2ccnc2-c2ccc(F)cc2)n1 | –
